{"source": "patent US20230212519A1", "about": "“METHOD FOR PURIFYING CARDIOMYOCYTES” (ORIZURU THERAPEUTICS, INC., priority 2020, published 2023)", "system": "embryoid body containing mixture of cardiomyocytes and non-cardiomyocytes", "experiment": "Sarcomeric α-actinin-positive cell rate by flow cytometer after treatment of embryoid body with compound", "format": "cell-based, human", "details": "Experimental Example 4; clinical iPS cell line; embryoid body treated from day 20 for 4 days; FK-228 1-30 nM, Entinostat 0.1-10 μM", "procedure": "On day 20, the embryoid body was recovered in a centrifugal tube, stood until a sediment of the embryoid body was formed, and the supernatant was aspirated while avoiding sucking the embryoid body. The medium was changed with a fresh 13 medium (same medium for myocardial differentiation as in Experimental Example 1), and divided into a 6-well plate with a medium amount of 3 mL/well so that an equal amount of the embryoid body would be placed in each well. Thereafter, an evaluation compound (1 nM to 10 μM) described in Table 1 or DMSO (0.1%) was added. […] It was centrifuged at 500 g for 1 min. The supernatant was removed, a solution of 500 μL of IMDM added with DNase 10 μg/mL and Liberase 100 μg/mL was added per one tube, and the mixture was stood at 37° C. under general oxygen conditions for 1 hr. […] The fixed cells were stained with an anti-sarcomeric α-actinin antibody, and the expression of sarcomeric α-actinin was analyzed with a flow cytometer. […]\nOn day 20, the embryoid body was recovered in a centrifugal tube, stood until a sediment of the embryoid body was formed, and the supernatant was aspirated while avoiding sucking the embryoid body. […] The fixed cells were stained with an anti-sarcomeric α-actinin antibody, and the sarcomeric α-actinin-positive cell rate was measured by analyzing the expression of sarcomeric α-actinin with a flow cytometer. […]", "data": [{"smiles": "Nc1ccccc1NC(=O)c1ccc(CNC(=O)OCc2cccnc2)cc1", "note": "[Entinostat]", "values": [{"measurement": "cardiomyocyte rate (sarcomeric α-actinin-positive cell rate)", "value": "improved"}]}]}
